Results published in patent US20230365537A1, “POLO LIKE KINASE 4 INHIBITORS” (ORIC Pharmaceuticals, Inc., priority 2021, published 2023).

Tests used:
human recombinant PLK4 = human recombinant PLK4 (Homo sapiens (Human), UniProt O00444); assay: PLK4 Biochemical Assay (ADP-Glo); conditions: 0.5 nM PLK4, 8.0 µM ATP, 4.7 µM MBP, 6 hours at RT
Description: (§1) Activity of human recombinant PLK4 (ThermoFisher, cat #PV6396) was measured by quantification of adenosine diphosphate (ADP) using the ADP-Glo Kinase Assay Kit (Promega, cat #V9102). […] 5 µL of 1.0 nM PLK4 protein in assay buffer (50 mM HEPES, pH 7.5, 0.01% Brij-35, 0.01% BSA, 10 mM MgCl2, 1 mM EGTA, 1 mM DTT) was added to the plates. Test compounds and PLK4 were incubated for 15 minutes at room temperature (RT). […] Reactions were stopped and the remaining ATP depleted by adding 10 µL of ADP-Glo reagent (Promega, cat#V912B) and incubating for 40 minutes at RT. The simultaneous conversion of the remaining ADP to ATP and measurement of the newly synthesized ATP was achieved by addition of 20 µL Kinase Detection reagent (Promega, cat #V914B), incubation for 30 min at RT, and luminescence detection using the EnVision plate reader (PerkinElmer). […] The IC50 values reported in Table 2 were determined using four parameter non-linear regression curve fit.

[1] = biological target: human recombinant Aurora B (Homo sapiens (Human), UniProt Q96GD4); assay: Aurora B Kinase Biochemical Assay (ADP-Glo); conditions: ratio of Aurora B IC50 to PLK4 IC50 (selectivity)
Chain of human recombinant Aurora B (Q96GD4 whole entry): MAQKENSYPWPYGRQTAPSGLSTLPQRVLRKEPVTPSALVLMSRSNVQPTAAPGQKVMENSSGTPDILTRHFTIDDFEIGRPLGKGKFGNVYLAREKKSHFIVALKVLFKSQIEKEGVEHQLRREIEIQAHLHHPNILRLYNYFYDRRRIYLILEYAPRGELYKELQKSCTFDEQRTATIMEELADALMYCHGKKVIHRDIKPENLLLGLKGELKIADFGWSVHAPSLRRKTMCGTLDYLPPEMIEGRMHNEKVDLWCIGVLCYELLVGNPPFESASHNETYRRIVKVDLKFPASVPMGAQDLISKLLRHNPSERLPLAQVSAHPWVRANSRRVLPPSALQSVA
Description: as §1, with “Aurora B” for “PLK4”, “#PR9210B)” for “#PV6396)”, “20” for “1.0”, “Aurora B” for “PLK4 protein”, “10uL” for “10 µL”

[2] = biological target: human recombinant Aurora A (Homo sapiens (Human), UniProt O14965); assay: Aurora A Kinase Biochemical Assay (ADP-Glo); conditions: ratio of Aurora A IC50 to PLK4 IC50 (selectivity)
Chain of human recombinant Aurora A (O14965 whole entry): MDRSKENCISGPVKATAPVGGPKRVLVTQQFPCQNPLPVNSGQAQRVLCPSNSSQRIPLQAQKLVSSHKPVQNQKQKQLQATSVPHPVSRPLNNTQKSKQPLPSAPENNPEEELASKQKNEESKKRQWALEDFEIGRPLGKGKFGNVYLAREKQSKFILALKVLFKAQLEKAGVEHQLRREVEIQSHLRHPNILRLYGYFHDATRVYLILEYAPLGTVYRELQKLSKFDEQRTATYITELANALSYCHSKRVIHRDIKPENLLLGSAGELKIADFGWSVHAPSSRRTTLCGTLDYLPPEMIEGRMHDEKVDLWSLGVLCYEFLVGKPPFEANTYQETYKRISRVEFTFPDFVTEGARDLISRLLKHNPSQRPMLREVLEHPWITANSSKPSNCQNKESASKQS
Description: as §1, with “Aurora A” for “PLK4”, “#PR5935A)” for “#PV6396)”, “5.0” for “1.0”, “Aurora A” for “PLK4 protein”, “10uL” for “10 µL”

Chain of human recombinant PLK4 (O00444 whole entry): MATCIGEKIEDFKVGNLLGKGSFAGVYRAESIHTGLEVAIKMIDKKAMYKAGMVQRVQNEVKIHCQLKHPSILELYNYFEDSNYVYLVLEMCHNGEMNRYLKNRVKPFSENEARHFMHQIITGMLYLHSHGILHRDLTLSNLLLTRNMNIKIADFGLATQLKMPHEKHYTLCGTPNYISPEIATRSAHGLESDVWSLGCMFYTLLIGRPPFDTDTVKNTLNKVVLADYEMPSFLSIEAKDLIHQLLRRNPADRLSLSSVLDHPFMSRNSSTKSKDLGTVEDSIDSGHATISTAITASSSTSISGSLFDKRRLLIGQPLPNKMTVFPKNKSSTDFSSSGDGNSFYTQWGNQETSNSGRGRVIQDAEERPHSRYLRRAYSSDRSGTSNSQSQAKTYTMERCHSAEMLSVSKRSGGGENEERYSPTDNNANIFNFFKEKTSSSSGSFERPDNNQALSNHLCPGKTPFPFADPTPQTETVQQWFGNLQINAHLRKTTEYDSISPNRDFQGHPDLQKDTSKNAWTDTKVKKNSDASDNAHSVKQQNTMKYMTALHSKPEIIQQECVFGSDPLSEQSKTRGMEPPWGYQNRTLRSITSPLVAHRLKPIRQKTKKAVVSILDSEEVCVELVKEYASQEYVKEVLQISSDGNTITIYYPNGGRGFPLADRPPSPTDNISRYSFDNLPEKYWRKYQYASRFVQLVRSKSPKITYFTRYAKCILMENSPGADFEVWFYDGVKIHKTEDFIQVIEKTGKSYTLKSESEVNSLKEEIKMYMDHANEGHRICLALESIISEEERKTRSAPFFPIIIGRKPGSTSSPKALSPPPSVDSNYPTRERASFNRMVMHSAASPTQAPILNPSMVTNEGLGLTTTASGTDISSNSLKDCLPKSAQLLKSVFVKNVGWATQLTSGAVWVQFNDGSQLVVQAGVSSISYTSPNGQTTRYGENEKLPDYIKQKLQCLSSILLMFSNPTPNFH

| Structure (SMILES) | IC50 (human recombinant PLK4) | [Aurora B IC50 (nM)]/[PLK4 IC50 (nM)] [1] | [Aurora A IC50 (nM)]/[PLK4 IC50 (nM)] [2] |
| --- | --- | --- | --- |
| COc1ccc2c(c1)[C@]1(C[C@H]1c1ccc3c(Nc4cccc5c4OCC5)n[nH]c3c1)C(=O)N2 [Example 16, (1R,2S)-2-{3-[(2,3-dihydro-1-benzofuran-7-yl)amino]-1H-indazol-6-yl}-5′-methoxyspiro[cyclopropane-1,3′-indol]-2′(1′H)-one] | 2.18 nM | 11.76 | 605.6855 |
| COc1ccc2c(c1)[C@]1(C[C@H]1c1ccc3c(Nc4cnn5c4OCC5)n[nH]c3c1)C(=O)N2 [Example 30, (1R,2S)-2-{3-[(2,3-dihydropyrazolo[5,1-b][1,3]oxazol-7-yl)amino]-1H-indazol-6-yl}-5′-methoxyspiro[cyclopropane-1,3′-indol]-2′(1′H)-one] | 31.2 nM | 6.188 | 36.2 |
| COc1ccc2c(c1)[C@]1(C[C@H]1c1ccc3c(Nc4cc(N5CC(OC)C5)ncn4)n[nH]c3c1)C(=O)N2 [Example 35, (1R,2S)-5′-methoxy-2-(3-{[6-(3-methoxyazetidin-1-yl)pyrimidin-4-yl]amino}-1H-indazol-6-yl)spiro[cyclopropane-1,3′-indol]-2′(1′H)-one] | 7.53 nM | 2.162 | 67.3 |
| COc1ccc2c(c1)[C@]1(C[C@H]1c1ccc3c(Nc4cc(N5CC(O)C5)ncn4)n[nH]c3c1)C(=O)N2 [Example 36, (1R,2S)-2-(3-{[6-(3-hydroxyazetidin-1-yl)pyrimidin-4-yl]amino}-1H-indazol-6-yl)-5′-methoxyspiro[cyclopropane-1,3′-indol]-2′(1′H)-one] | 6.17 nM | 5.701 | 218.2083 |
| COc1ccc2c(c1)[C@]1(C[C@H]1c1ccc3c(Nc4ncnc(N5C6CCC5COC6)c4OC)n[nH]c3c1)C(=O)N2 [Example 37, (1R,2S)-2-(3-((6-(3-oxa-8-azabicydo[3.2.1]octan-8-yl)-5-methoxypyrimidin-4-yl)amino)-1H-indazol-6-yl)-5′-methoxyspiro[cydopropane-1,3′-indolin]-2′-one] | 12.5 nM | 49.51 | 1799.358 |
| COc1ccc2c(c1)[C@]1(C[C@H]1c1ccc3c(Nc4cc(OCCO)ncn4)n[nH]c3c1)C(=O)N2 [Example 38, (1R,2S)-2-(3-{[6-(2-hydroxyethoxy)pyrimidin-4-yl]amino}-1H-indazol-6-yl)-5′-methoxyspiro[cyclopropane-1,3′-indol]-2′(1′H)-one] | 14.1 nM | 2.761 | 43.69 |
| COc1ccc2c(c1)[C@]1(C[C@H]1c1ccc3c(Nc4cc(N5CCS(=O)(=O)CC5)ncn4)n[nH]c3c1)C(=O)N2 [Example 39, (1R,2S)-2-(3-((6-(1,1-dioxidothiomorpholino)pyrimidin-4-yl)amino)-1H-indazol-6-yl)-5′-methoxyspiro[cyclopropane-1,3′-indolin]-2′-one] | 26.4 nM | 1.018 | 30.38 |
| COc1ccc2c(c1)[C@]1(C[C@H]1c1ccc3c(Nc4cc(N5CCCOCC5)ncn4)n[nH]c3c1)C(=O)N2 [Example 40, (1R,2S)-5′-methoxy-2-(3-{[6-(1,4-oxazepan-4-yl)pyrimidin-4-yl]amino}-1H-indazol-6-yl)spiro[cyclopropane-1,3′-indol]-2′(1′H)-one] | 15.2 nM | 2.783 | 67.06 |
| COc1ccc2c(c1)[C@]1(C[C@H]1c1ccc3c(Nc4ncnc(N5CCCOCC5)c4OC)n[nH]c3c1)C(=O)N2 [Example 44, (1R,2S)-5′-methoxy-2-(3-{[5-methoxy-6-(1,4-oxazepan-4-yl)pyrimidin-4-yl]amino}-1H-indazol-6-yl)spiro[cyclopropane-1,3′-indol]-2′(1′H)-one] | 20.7 nM | 45.11 | 1269.119 |
| COc1ccc2c(c1)[C@]1(C[C@H]1c1ccc3c(Nc4cc(N5CCC5)ncn4)n[nH]c3c1)C(=O)N2 [Example 45, (1R,2S)-2-(3-{[6-(azetidin-1-yl)pyrimidin-4-yl]amino}-1H-indazol-6-yl)-5′-methoxyspiro[cyclopropane-1,3′-indol]-2′(1′H)-one] | 15.5 nM | 4.603 | 137.8309 |

Second part, the compound after the results:

| IC50 (human recombinant PLK4) | [Aurora B IC50 (nM)]/[PLK4 IC50 (nM)] [1] | [Aurora A IC50 (nM)]/[PLK4 IC50 (nM)] [2] | Structure (SMILES) |
| --- | --- | --- | --- |
| 4.3 nM | 34.9 | 1145.911 | COc1ccc2c(c1)[C@]1(C[C@H]1c1ccc3c(Nc4ncccc4OC)n[nH]c3c1)C(=O)N2 [Example 17, (1R,2S)-5′-methoxy-2-{3-[(3-methoxypyridin-2-yl)amino]-1H-indazol-6-yl}spiro[cyclopropane-1,3′-indol]-2′(1′H)-one] |
| 34.2 nM | 28.1 | 249.6489 | COc1ccc2c(c1)[C@]1(C[C@H]1c1ccc3c(Nc4cn(C)nc4OC)n[nH]c3c1)C(=O)N2 [Example 25, (1R,2S)-5′-methoxy-2-{3-[(3-methoxy-1-methyl-1H-pyrazol-4-yl)amino]-1H-indazol-6-yl}spiro[cyclopropane-13′-indol]-2′(1′H)-one] |
| 3.02 nM | 22.17 | 207.053 | COc1ccc2c(c1)[C@]1(C[C@H]1c1ccc3c(Nc4cccc5c4OCC5=O)n[nH]c3c1)C(=O)N2 [Example 31, (1R,2S)-5′-methoxy-2-{3-[(3-oxo-2,3-dihydro-1-benzofuran-7-yl)amino]-1H-indazol-6-yl}spiro[cyclopropane-1,3′-indol]-2′(1′H)-one] |
| 3.94 nM | 17.5546 | 911.8842 | COc1ccc2c(c1)[C@]1(C[C@H]1c1ccc3c(Nc4nccc5c4OCC5)n[nH]c3c1)C(=O)N2 [Example 32, (1R,2S)-2-{3-[(2,3-dihydrofuro[2,3-c]pyridin-7-yl)amino]-1H-indazol-6-yl}-5′-methoxyspiro[cyclopropane-1,3′-indol]-2′(1′H)-one] |
| 5.91 nM | 8.474 | 355.9465 | COc1ccc2c(c1)[C@]1(C[C@H]1c1ccc3c(Nc4nccc5c4OC[C@@H]5CO)n[nH]c3c1)C(=O)N2 [Example 33, (1R,2S)-2-(3-{[(3S)-3-(hydroxymethyl)-2,3-dihydrofuro[2,3-c]pyridin-7-yl]amino}-1H-indazol-6-yl)-5′-methoxyspiro[cyclopropane-1,3′-indol]-2′(1′H)-one] |
| 36.2 nM | 42.3 | 1053.808 | COc1ccc2c(c1)[C@]1(C[C@H]1c1ccc3c(Nc4ncnc(N5CCC5)c4OC)n[nH]c3c1)C(=O)N2 [Example 42, (1R,2S)-2-(3-{[6-(azetidin-1-yl)-5-methoxypyrimidin-4-yl]amino}-1H-indazol-6-yl)-5′-methoxyspiro[cyclopropane-1,3′-indol]-2′(1′H)-one] |
| 14.5 nM | 21.9 | 1347.136 | COc1ccc2c(c1)[C@]1(C[C@H]1c1ccc3c(Nc4ncnc(N5CC(O)C5)c4OC)n[nH]c3c1)C(=O)N2 [Example 43, (1R,2S)-2-(3-{[6-(3-hydroxyazetidin-1-yl)-5-methoxypyrimidin-4-yl]amino}-1H-indazol-6-yl)-5′-methoxyspiro[cyclopropane-1,3′-indol]-2′(1′H)-one] |
